“Also recorded” adds a separate entry of the source.
How the values were obtained:
NTCP-HepG2 cells = experiment: MTT cytotoxicity assay in NTCP-HepG2 cells; format: cell-based, human; conditions: NTCP-HepG2 cells, 5, 50 and 300 µM, 6 h incubation
human NTCP [1] = biological target: T1, human NTCP (Homo sapiens, UniProt Q14973); experiment: [3H]taurocholic acid ([3H]TC) transport inhibition in NTCP-HEK293 cells; format: cell-based; conditions: for IC50: NTCP-HEK293 cells
T1 construct: expressed in transfected cells
T1 sequence (Q14973 1-349): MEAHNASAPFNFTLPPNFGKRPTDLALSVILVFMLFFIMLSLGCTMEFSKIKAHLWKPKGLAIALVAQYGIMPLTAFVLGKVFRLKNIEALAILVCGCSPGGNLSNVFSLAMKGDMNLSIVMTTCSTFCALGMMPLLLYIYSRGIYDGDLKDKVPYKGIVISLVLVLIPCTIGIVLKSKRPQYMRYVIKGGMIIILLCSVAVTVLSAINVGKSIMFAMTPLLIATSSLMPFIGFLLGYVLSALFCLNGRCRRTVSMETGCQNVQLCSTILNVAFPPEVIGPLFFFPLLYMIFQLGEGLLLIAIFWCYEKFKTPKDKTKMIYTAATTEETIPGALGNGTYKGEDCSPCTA

human NTCP [2] = biological target: T1, human NTCP; experiment: [3H]preS1 peptide; format: binding; conditions: for remaining activity at 100 µM / inhibition at 100 µM: 100 µM inhibitor; for remaining activity at 100 µM: 5 nM [3H]preS1, pre-screen, read-out: remaining [3H]preS1 binding compared to untreated control; for virus/preS1 selectivity (in words): [3H]preS1 binding versus [3H]TC uptake inhibition; for [3H]preS1 binding inhibition (in words): 100 µM inhibitor where from Figure 6, SAR statements; for inhibition at 100 µM: 5 nM [3H]preS1, read-out: inhibition of [3H]preS1 peptide binding
HDV = experiment: In vitro HDV infection of NTCP-HepG2 cells (HDAg immunostaining); format: cell-based, Hepatitis D virus; conditions: 5 µM to 300 µM
[3] = 95% confidence interval, inhibition of 1 µM [3H]TC uptake, 10 min, 37 °C, read-out: IC50 ([3H]TC Uptake)
[4] = 95% confidence interval, inhibition of 5 nM [3H]preS1 binding, NTCP-HEK293 cells, 10 min, 37 °C, read-out: IC50 ([3H]preS1 Binding)
[5] = 5 nM [3H]preS1, NTCP-HEK293 cells, read-out: IC50 [3H]preS1 binding inhibition (single value)
[6] = 1 µM [3H]TC, read-out: IC50 taurocholic acid uptake inhibition (single value)

[3H]preS1 binding inhibition (in words) (human NTCP [2]) | SMILES | IC50 (human NTCP [1]; [3]) [µM] | remaining activity at 100 µM (human NTCP [2]) [%] | IC50 (human NTCP [2]; [4]) [µM] | other results
 | O=C(Nc1ccc(Cl)cc1)c1cc(Oc2ccc(Cl)cc2)ccc1NS(=O)(=O)c1ccc(Cl)cc1 [A000028897] | 16 to 62 | < 50 | 3 to 24 | Cytotoxicity (in words) (NTCP-HepG2 cells): obvious cytotoxicity even at low (5 µM) concentrations; also recorded: toxic; virus/preS1 selectivity (in words) (human NTCP [2]): more or less non-selective
relatively high | O[C@@H](c1ccccc1)[C@@H](c1ccccn1)[C@H](Nc1ccccn1)c1cccc(Br)c1 [A000289041] | > 1000 | < 50 | 35 to 224 | 
significant but less potent | O[C@H](c1ccc2ccccc2c1)[C@H](c1ccccn1)[C@@H](Nc1ccccn1)c1ccccc1 [A000294559] |  |  |  | inhibition at 100 µM (human NTCP [2]): ≤ 50%
 | O[C@H](c1ccccc1)[C@@H](c1ccc2ccccc2n1)[C@H](Nc1ccccn1)c1ccccc1 [A000295013] | > 1000 | < 50 | 73 to 194 | IC50 (human NTCP [2]; [5]): ~130 µM
significant but less potent | O[C@H](c1ccccc1)[C@@H](c1ccccn1)[C@H](Nc1ccc(F)cn1)c1ccccc1 [A000295230] |  |  |  | inhibition at 100 µM (human NTCP [2]): ≤ 50%
inactive | O[C@H](c1ccccc1)[C@@H](c1ccccn1)[C@H](Nc1ccccc1)c1ccccc1 [A000295238] |  |  |  | 
inactive | Nc1ccc([C@H](O)[C@H](c2ccccn2)[C@@H](Nc2ccccn2)c2ccccc2)cc1 [A000295724] |  |  |  | 
significant but less potent | O[C@@H](c1ccccc1)[C@H](c1ccccn1)[C@@H](Nc1ccc(Cl)cn1)c1ccccc1 [A000296575] |  |  |  | inhibition at 100 µM (human NTCP [2]): ≤ 50%
significant, but less active inhibitors | Oc1cccc([C@H](O)[C@H](c2ccccn2)[C@@H](Nc2ccccn2)c2ccccc2)c1 [A000296584] |  |  |  | 
significant but less potent | O[C@@H](c1ccccc1)[C@@H](c1ccccn1)[C@H](Nc1ccccn1)c1ccsc1 [A000344053] |  |  |  | inhibition at 100 µM (human NTCP [2]): ≤ 50%
inactive | O[C@@H](c1cccnc1)[C@H](c1ccccn1)[C@@H](Nc1ccccn1)c1ccccc1 [S958009] |  |  |  | 
significant, but less active inhibitors | COc1cccc([C@H](O)[C@H](c2ccccn2)[C@@H](Nc2ccccn2)c2ccccc2)c1 [S963601] |  |  |  | 
 | O[C@H](c1ccc([C@@H](O)[C@@H](c2ccccn2)[C@H](Nc2ccccn2)c2ccccc2)cc1)[C@@H](c1ccccn1)[C@H](Nc1ccccn1)c1ccccc1 [S973509] | 202 to 775 | < 50 | 3 to 10 | IC50 (human NTCP [1]; [6]): 490 µM; IC50 (human NTCP [2]; [5]): 7 µM; virus/preS1 selectivity (in words) (human NTCP [2]): some selectivity towards the virus receptor function of NTCP; inhibition of in vitro HDV infection (in words) (HDV): significant concentration-dependent inhibition; also recorded: active against in vitro HDV infection
relatively high | O[C@@H](c1ccccc1)[C@@H](c1ccccn1)[C@H](Nc1ccccn1)c1cccc2ccccc12 [S973515] | 413 to 1240 | < 50 | 39 to 148 | 
 | O=Cc1cccc([C@@H]([C@H](Nc2ccccn2)c2ccccc2)[C@@H](O)c2ccccc2)n1 [S985852] | 13 to 34 | < 50 | 8 to 24 | Cytotoxicity (in words) (NTCP-HepG2 cells): critical cytotoxicity at 300 µM; IC50 (human NTCP [1]; [6]): 24 µM; IC50 (human NTCP [2]; [5]): ~15 µM; virus/preS1 selectivity (in words) (human NTCP [2]): more or less non-selective; inhibition of in vitro HDV infection (in words) (HDV): significant concentration-dependent inhibition; also recorded: active against in vitro HDV infection

SMILES | [3H]preS1 binding inhibition (in words) (human NTCP [2]) | IC50 (human NTCP [1]; [3]) [µM] | remaining activity at 100 µM (human NTCP [2]) [%] | IC50 (human NTCP [2]; [4]) [µM] | other results
COc1ccc([C@H](O)[C@H](c2ccccn2)[C@@H](Nc2ccccn2)c2ccccc2)cc1 [A000295231] | even further improved the inhibitory potency | 341 to 1220 | < 50 | 4 to 29 | IC50 (human NTCP [1]; [6]): 780 µM; IC50 (human NTCP [2]; [5]): 17 µM; virus/preS1 selectivity (in words) (human NTCP [2]): some selectivity towards the virus receptor function of NTCP; inhibition of in vitro HDV infection (in words) (HDV): significant concentration-dependent inhibition; also recorded: active against in vitro HDV infection
COc1ccc(N[C@H](c2ccccc2)[C@H](c2ccccn2)[C@H](O)c2ccccc2)nc1 [A000295480] | relatively high | 145 to 1320 | < 50 | 32 to 297 | virus/preS1 selectivity (in words) (human NTCP [2]): more or less non-selective
O[C@@H](c1ccccc1)[C@H](c1ccccn1)[C@@H](Nc1ccccn1)c1ccccc1 [S957291] | significantly increased the inhibitory potency |  |  |  | [3H]TC uptake inhibition (in words) (human NTCP [1]; 100 µM inhibitor, Figure 6): significantly increased the inhibitory potency
